EP4635500A1, “THERAPEUTIC AGENT FOR BACTERIAL INFECTION” (Sumitomo Pharma Co., Ltd., priority 2022, dated 2024)
Values after ≈ are worked out from the molar mass of the structure shown.

Tests used:
[1] = tested on: Bacteroides spp.; assay: MIC, agar dilution, anaerobic bacteria (Example 9, Tables 17, 22); assay type: cell-based; conditions: for MIC: (n)=Compound A µg/mL, 0=Compound A alone antibacterial
[2] = tested on: Prevotella spp.; assay: MIC, agar dilution, anaerobic bacteria (Example 9, Tables 18, 23); assay type: cell-based; conditions: for MIC: (n)=Compound A µg/mL, 0=Compound A alone antibacterial

## Cc1ncc([N+](=O)[O-])n1CCO [Metronidazole]
[1]; Bacteroides spp.
  MICrange: ≤0.12 to 2 µg/mL
[1]; Bacteroides spp., read-out: MIC50
  MIC50: 1 µg/mL (≈ 5.84 µM)
[1]; Bacteroides spp., read-out: MIC90
  MIC90: 1 µg/mL (≈ 5.84 µM)
[1]; Bacteroides, KUB No. 2982 Bacteroidesfragilis
  MIC: 1 µg/mL (≈ 5.84 µM)
[1]; Bacteroides, KUB No. 6464 Bacteroides vulgarus
  MIC: 0.5 µg/mL (≈ 2.92 µM)
[1]; Bacteroides, KUB No. 6480 Bacteroides thetaioraomicron
  MIC: 1 µg/mL (≈ 5.84 µM)
[1]; Bacteroides, KUB No. 6487 Bacteroides thetaiotamicron
  MIC: 0.25 µg/mL (≈ 1.46 µM)
[1]; KUB No. 2977 Bacteroides thetaiotaomicron ATCC 29741
  MIC: 2 µg/mL (≈ 11.7 µM)
[1]; KUB No. 2983 Bacteroides fragilis
  MIC: 0.25 µg/mL (≈ 1.46 µM)
[1]; KUB No. 2984 Bacteroides thetaiotaomicron
  MIC: 1 µg/mL (≈ 5.84 µM)
[1]; KUB No. 3003 Bacteroides fragilis ATCC 25285
  MIC: 0.5 µg/mL (≈ 2.92 µM)
[1]; KUB No. 3009 Bacteroides ovatus
  MIC: 1 µg/mL (≈ 5.84 µM)
[1]; KUB No. 6458 Bacteroides fragilis
  MIC: 0.5 µg/mL (≈ 2.92 µM)
[1]; KUB No. 6459 Bacteroides stercoris
  MIC: 1 µg/mL (≈ 5.84 µM)
[1]; KUB No. 6460 Bacteroides thetaiotaomicron
  MIC: 2 µg/mL (≈ 11.7 µM)
[1]; KUB No. 6461 Bacteroides fragilis
  MIC: 0.5 µg/mL (≈ 2.92 µM)
[1]; KUB No. 6463 Bacteroides fragilis
  MIC: 0.5 µg/mL (≈ 2.92 µM)
[1]; KUB No. 6465 Bacteroides thetaiotaomicron
  MIC: 2 µg/mL (≈ 11.7 µM)
[1]; KUB No. 6466 Bacteroides fragilis
  MIC: 1 µg/mL (≈ 5.84 µM)
[1]; KUB No. 6467 Bacteroides fragilis
  MIC: 0.5 µg/mL (≈ 2.92 µM)
[1]; KUB No. 6468 Bacteroides fragilis
  MIC: 1 µg/mL (≈ 5.84 µM)
[1]; KUB No. 6469 Bacteroides fragilis
  MIC: 1 µg/mL (≈ 5.84 µM)
[1]; KUB No. 6470 Bacteroides fragilis
  MIC: 2 µg/mL (≈ 11.7 µM)
[1]; KUB No. 6471 Bacteroides fragilis
  MIC: 1 µg/mL (≈ 5.84 µM)
[1]; KUB No. 6472 Bacteroides stercoris
  MIC: 0.5 µg/mL (≈ 2.92 µM)
[1]; KUB No. 6473 Bacteroides fragilis
  MIC: 1 µg/mL (≈ 5.84 µM)
[1]; KUB No. 6474 Bacteroides fragilis
  MIC: 0.5 µg/mL (≈ 2.92 µM)
[1]; KUB No. 6475 Bacteroides thetaiotaomicron
  MIC: 1 µg/mL (≈ 5.84 µM)
[1]; KUB No. 6476 Bacteroides vulgatus
  MIC: 1 µg/mL (≈ 5.84 µM)
[1]; KUB No. 6477 Bacteroides fragilis
  MIC: ≤ 0.12 µg/mL
[1]; KUB No. 6478 Bacteroides fragilis
  MIC: 0.25 µg/mL (≈ 1.46 µM)
[1]; KUB No. 6481 Bacteroides fragilis
  MIC: 1 µg/mL (≈ 5.84 µM)
[1]; KUB No. 6483 Bacteroides fragilis
  MIC: 0.25 µg/mL (≈ 1.46 µM)
[1]; KUB No. 6484 Bacteroides fragilis
  MIC: 0.5 µg/mL (≈ 2.92 µM)
[1]; KUB No. 6485 Bacteroides vulgatus
  MIC: 0.25 µg/mL (≈ 1.46 µM)
[1]; KUB No. 6486 Bacteroides fragilis
  MIC: 1 µg/mL (≈ 5.84 µM)
[1]; KUB No. 6490 Bacteroides fragilis
  MIC: 0.5 µg/mL (≈ 2.92 µM)
[1]; KUB No. 6491 Bacteroides fragilis
  MIC: 1 µg/mL (≈ 5.84 µM)
[1]; KUB No. 6493 Bacteroides thetaiotaomicron
  MIC: 1 µg/mL (≈ 5.84 µM)
[1]; KUB No. 6496 Bacteroides fragilis
  MIC: 1 µg/mL (≈ 5.84 µM)
[1]; KUB No. 6497 Bacteroides vulgatus
  MIC: 1 µg/mL (≈ 5.84 µM)
[1]; KUB No. 6502 Bacteroides fragilis
  MIC: 0.25 µg/mL (≈ 1.46 µM)
[1]; KUB No. 6503 Bacteroides thetaiotaomicron
  MIC: 1 µg/mL (≈ 5.84 µM)
[1]; KUB No. 6504 Bacteroides caccae
  MIC: 1 µg/mL (≈ 5.84 µM)
[1]; KUB No. 6506 Bacteroides thetaiotaomicron
  MIC: 1 µg/mL (≈ 5.84 µM)
[1]; KUB No. 6509 Bacteroides fragilis
  MIC: ≤ 0.12 µg/mL
[1]; KUB No. 6511 Bacteroides salyersiae
  MIC: 1 µg/mL (≈ 5.84 µM)
[1]; KUB No. 6513 Bacteroides fragilis
  MIC: 0.5 µg/mL (≈ 2.92 µM)
[1]; KUB No. 6515 Bacteroides thetaiotaomicron
  MIC: 1 µg/mL (≈ 5.84 µM)
[1]; KUB No. 6518 Bacteroides fragilis
  MIC: 0.5 µg/mL (≈ 2.92 µM)
[1]; KUB No. 6522 Bacteroides fragilis
  MIC: 1 µg/mL (≈ 5.84 µM)
[1]; KUB No. 6523 Bacteroides fragilis
  MIC: 1 µg/mL (≈ 5.84 µM)
[1]; KUB No. 6525 Bacteroides fragilis
  MIC: 1 µg/mL (≈ 5.84 µM)
[1]; KUB No. 6527 Bacteroides thetaiotaomicron
  MIC: 1 µg/mL (≈ 5.84 µM)
[1]; KUB No. 6530 Bacteroides thetaiotaomicron
  MIC: 1 µg/mL (≈ 5.84 µM)
[1]; KUB No. 6535 Bacteroides fragilis
  MIC: 0.5 µg/mL (≈ 2.92 µM)
[1]; KUB No. 6544 Bacteroides vulgatus
  MIC: 1 µg/mL (≈ 5.84 µM)
[1]; KUB No. 6545 Bacteroides thetaiotaomicron
  MIC: 0.5 µg/mL (≈ 2.92 µM)
[1]; KUB No. 6556 Bacteroides vulgatus
  MIC: 0.5 µg/mL (≈ 2.92 µM)
[2]; KUB No. 2989 Prevotella histicola
  MIC: 0.5 µg/mL (≈ 2.92 µM)
[2]; KUB No. 2991 Prevotella intermedia
  MIC: 0.5 µg/mL (≈ 2.92 µM)
[2]; KUB No. 2992 Prevotella buccae
  MIC: 1 µg/mL (≈ 5.84 µM)
[2]; KUB No. 3005 Prevotella melaninogenica
  MIC: 1 µg/mL (≈ 5.84 µM)
[2]; KUB No. 6558 Prevotella heparinolytica
  MIC: 0.25 µg/mL (≈ 1.46 µM)
[2]; KUB No. 6559 Prevotella intermedia
  MIC: 2 µg/mL (≈ 11.7 µM)
[2]; KUB No. 6560 Prevotella nigrescens
  MIC: 0.5 µg/mL (≈ 2.92 µM)
[2]; KUB No. 6561 Prevotella melaninogenica
  MIC: 1 µg/mL (≈ 5.84 µM)
[2]; KUB No. 6563 Prevotella nigrescens
  MIC: 0.5 µg/mL (≈ 2.92 µM)
[2]; KUB No. 6564 Prevotella buccae
  MIC: 2 µg/mL (≈ 11.7 µM)
[2]; KUB No. 6565 Prevotella nigrescens
  MIC: 0.5 µg/mL (≈ 2.92 µM)
[2]; KUB No. 6567 Prevotella melaninogenica
  MIC: 0.5 µg/mL (≈ 2.92 µM)
[2]; KUB No. 6568 Prevotella intermedia
  MIC: 1 µg/mL (≈ 5.84 µM)
[2]; KUB No. 6569 Prevotella nanceiensis
  MIC: 2 µg/mL (≈ 11.7 µM)
[2]; KUB No. 6570 Prevotella intermedia
  MIC: 2 µg/mL (≈ 11.7 µM)
[2]; KUB No. 6571 Prevotella denticola
  MIC: 0.25 µg/mL (≈ 1.46 µM)
[2]; KUB No. 6572 Prevotella melaninogenica
  MIC: 0.5 µg/mL (≈ 2.92 µM)
[2]; KUB No. 6574 Prevotella oris
  MIC: 0.5 µg/mL (≈ 2.92 µM)
[2]; KUB No. 6575 Prevotella nigrescens
  MIC: 1 µg/mL (≈ 5.84 µM)
[2]; KUB No. 6576 Prevotella intermedia
  MIC: 0.25 µg/mL (≈ 1.46 µM)
[2]; KUB No. 6579 Prevotella pallens
  MIC: 0.5 µg/mL (≈ 2.92 µM)
[2]; KUB No. 6581 Prevotella intermedia
  MIC: 2 µg/mL (≈ 11.7 µM)
[2]; KUB No. 6582 Prevotella melaninogenica
  MIC: 0.5 µg/mL (≈ 2.92 µM)
[2]; KUB No. 6585 Prevotella baroniae
  MIC: 1 µg/mL (≈ 5.84 µM)
[2]; KUB No. 6587 Prevotella melaninogenica
  MIC: ≤ 0.12 µg/mL
[2]; KUB No. 6588 Prevotella nigrescens
  MIC: 0.5 µg/mL (≈ 2.92 µM)
[2]; KUB No. 6589 Prevotella buccae
  MIC: 0.5 µg/mL (≈ 2.92 µM)
[2]; KUB No. 6590 Prevotella buccae
  MIC: 0.5 µg/mL (≈ 2.92 µM)
[2]; KUB No. 6591 Prevotella intermedia
  MIC: 0.5 µg/mL (≈ 2.92 µM)
[2]; KUB No. 6592 Prevotella jejuni
  MIC: 0.5 µg/mL (≈ 2.92 µM)
[2]; KUB No. 6600 Prevotella intermedia
  MIC: 0.5 µg/mL (≈ 2.92 µM)
[2]; KUB No. 6601 Prevotella melaninogenica
  MIC: 0.5 µg/mL (≈ 2.92 µM)
[2]; KUB No. 6603 Prevotella melaninogenica
  MIC: 0.25 µg/mL (≈ 1.46 µM)
[2]; KUB No. 6609 Prevotella buccae
  MIC: 0.5 µg/mL (≈ 2.92 µM)
[2]; KUB No. 6611 Prevotella nigrescens
  MIC: 1 µg/mL (≈ 5.84 µM)
[2]; KUB No. 6612 Prevotella oris
  MIC: 0.5 µg/mL (≈ 2.92 µM)
[2]; KUB No. 6613 Prevotella buccae
  MIC: 0.5 µg/mL (≈ 2.92 µM)
[2]; KUB No. 6614 Prevotella intermedia
  MIC: 1 µg/mL (≈ 5.84 µM)
[2]; KUB No. 6615 Prevotella buccae
  MIC: 1 µg/mL (≈ 5.84 µM)
[2]; KUB No. 6617 Prevotella buccae
  MIC: 2 µg/mL (≈ 11.7 µM)
[2]; KUB No. 6618 Prevotella melaninogenica
  MIC: 0.25 µg/mL (≈ 1.46 µM)
[2]; KUB No. 6622 Prevotella loescheii
  MIC: 1 µg/mL (≈ 5.84 µM)
[2]; KUB No. 6623 Prevotella nigrescens
  MIC: 1 µg/mL (≈ 5.84 µM)
[2]; KUB No. 6625 Prevotella melaninogenica
  MIC: 0.5 µg/mL (≈ 2.92 µM)
[2]; KUB No. 6626 Prevotella loescheii
  MIC: 1 µg/mL (≈ 5.84 µM)
[2]; KUB No. 6629 Prevotella bivia
  MIC: 8 µg/mL (≈ 46.7 µM)
[2]; KUB No. 6630 Prevotella nigrescens
  MIC: 0.5 µg/mL (≈ 2.92 µM)
[2]; KUB No. 6631 Prevotella jejuni
  MIC: 0.5 µg/mL (≈ 2.92 µM)
[2]; Prevotella spp.
  MICrange: ≤0.12 to 8 µg/mL
[2]; Prevotella spp., read-out: MIC50
  MIC50: 0.5 µg/mL (≈ 2.92 µM)
[2]; Prevotella spp., read-out: MIC90
  MIC90: 2 µg/mL (≈ 11.7 µM)
[2]; Prevotella, KUB No. 6583 Prevotella nonceiensis
  MIC: 2 µg/mL (≈ 11.7 µM)
[2]; Prevotella, KUB No. 6604 Prevotella nonceiensis
  MIC: 1 µg/mL (≈ 5.84 µM)
[2]; po, KUB No. 6566 Prevotella oralis
  MIC: 0.25 µg/mL (≈ 1.46 µM)
